{
  "source": "patent US11980625B2",
  "about": "“Ganaxolone for use in treating tuberous sclerosis complex” (Marinus Pharmaceuticals, Inc., priority 2019, dated 2024)",
  "system": "individuals with a confirmed PCDH19 mutation (PCDH19-related epilepsy)",
  "assay": "Open-label study in individuals with PCDH19 mutation, seizure frequency and Allo-S biomarker",
  "assay_type": "in vivo, human",
  "procedure": "FIG. 1 depicts baseline endogenous allopregnenolone-sulfate (“Allo-S”) levels in female patients with PCDH19-related epilepsy stratified by responder vs. non-responder. When stratifying patients with allopregnanolone-sulfate (Allo-S) levels <2.5 ng mL-1, a 50% median reduction in seizure frequency (n=7) compared to baseline was observed. This analysis was conducted retrospectively in a small, open label cohort.\nIndividuals (n=11) with a confirmed PCDH19 mutation and minimum seizure burden were enrolled between May 2015 and November 2015 at six centers in the U.S. and Italy. Seizure frequency change (%) was assessed as the primary endpoint and a responder was defined as having a 25% or greater decrease in seizure rate. Plasma neurosteroid levels were quantified using a previously published GC/MS method (doi:10.1016/50028-3908(99)00149-5). In two cases, baseline neurosteroid levels were not measured.",
  "data": [
    {"smiles": "CC(=O)[C@H]1CC[C@H]2[C@@H]3CC[C@H]4C[C@](C)(O)CC[C@]4(C)[C@H]3CC[C@]12C", "note": "[Ganaxolone, 3α-hydroxy-3β-methyl-5α-pregnan-20-one]", "values": [
      {"measurement": "median decrease in 28-day seizure frequency (all seizure types) from baseline", "setting": "all-comers (n=11)", "value": 26, "unit": "%"},
      {"measurement": "seizure frequency at 6 months compared to baseline", "setting": "biomarker-negative (high Allo-S) group, p=0.25, Wilcoxon", "value": "did not improve"},
      {"measurement": "median % change seizure rate", "setting": "biomarker-negative (n=4, Allo-S >2,500 pg mL-1)", "value": 247, "unit": "%"},
      {"measurement": "median % change seizure rate", "setting": "biomarker-positive (n=7, Allo-S<2,500 pg mL-1)", "value": "−53.9", "unit": "%"},
      {"measurement": "seizure frequency at 6 months compared to baseline", "setting": "biomarker-positive group, p=0.02, Wilcoxon", "value": "significantly improved"},
      {"measurement": "median reduction in seizure frequency compared to baseline", "setting": "patients with Allo-S levels <2.5 ng mL-1 (n=7), FIG. 1", "value": 50, "unit": "%"}
    ]}
  ]
}
